# According to patent US20250230193A1, “CYCLIC COMPOUND HAVING SELECTIVE KRAS INHIBITORY EFFECT ON HRAS AND NRAS” (CHUGAI SEIYAKU KABUSHIKI KAISHA, priority 2022, published 2025):
# Where a SMILES comes first, the peptide text is derived from it. Bridges are numbered along the chain shown (N, C = ends). [ ]: non-standard residue; d: D form. hPhe(3-Cl-4-CF3) = N[C@@H](CCc1ccc(C(F)(F)F)c(Cl)c1)C(=O)O; NPrPhe(4-CF3) = CCCN[C@@H](Cc1ccc(C(F)(F)F)cc1)C(=O)O; NMeGly(cPent) = CN[C@H](C(=O)O)C1CCCC1; Pro(4,4-F2) = O=C(O)[C@@H]1CC(F)(F)CN1; NMeL = CN[C@@H](CC(C)C)C(=O)O; Aze = O=C(O)[C@@H]1CCN1; Ac4c = NC1(C(=O)O)CCC1; Sar = CNCC(=O)O
# Experiments:
# [1] = molecular target: GDP-bound HRAS wild-type protein (Homo sapiens, UniProt P01112); assay: Binding to HRAS by surface plasmon resonance (SPR), Single Cycle Kinetics; details: SPR
# Chain of GDP-bound HRAS wild-type protein (P01112 whole entry): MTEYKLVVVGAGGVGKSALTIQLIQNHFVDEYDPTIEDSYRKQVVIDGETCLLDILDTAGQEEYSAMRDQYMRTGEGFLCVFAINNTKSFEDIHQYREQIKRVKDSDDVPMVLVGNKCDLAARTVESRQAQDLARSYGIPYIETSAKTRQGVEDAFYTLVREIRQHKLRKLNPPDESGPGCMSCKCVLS
# [2] = molecular target: GDP-bound NRAS wild-type protein (Homo sapiens, UniProt P01111); assay: Binding to NRAS by surface plasmon resonance (SPR), Single Cycle Kinetics; details: SPR
# Chain of GDP-bound NRAS wild-type protein (P01111 whole entry): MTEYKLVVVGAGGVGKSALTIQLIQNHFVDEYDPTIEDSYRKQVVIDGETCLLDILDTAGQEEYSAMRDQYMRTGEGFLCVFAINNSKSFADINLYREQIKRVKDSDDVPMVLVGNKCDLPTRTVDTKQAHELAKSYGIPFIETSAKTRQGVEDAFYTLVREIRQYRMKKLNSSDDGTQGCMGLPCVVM
# [3] = GDP-bound HRAS wild-type vs GDP-bound KRAS wild-type
# [4] = GDP-bound NRAS wild-type vs GDP-bound KRAS wild-type
smiles,measurement,setting,value
CCO[C@@H]1C[C@H]2C(=O)NC3(CCC3)C(=O)N(C)[C@@H](C3CCCC3)C(=O)N(C)[C@H](C(=O)N(CC)CC)CC(=O)N(C)[C@@H](CC(C)C)C(=O)N[C@@H]([C@@H](C)CC)C(=O)N(C)CC(=O)N(C)[C@H]3C/C=C\CCN(C3=O)[C@@H](Cc3ccc(C(F)(F)F)cc3)C(=O)N(C)CC(=O)N[C@@H](CCc3cc(F)c(C(F)(F)F)c(F)c3)C(=O)N2C1 [PP1306],HRAS/KRAS (ratio of KD value for GDP-bound HRAS wild-type protein to KD value for KRAS),[1]; KD ratio class,A (a compound having 10 or more and less than 20 is denoted as A)
same,NRAS/KRAS (ratio of KD value for GDP-bound NRAS wild-type protein to KD value for KRAS),[2]; KD ratio class,AA (a compound having 20 or more is denoted as AA)
CCC[C@H]1C(=O)N[C@@H]([C@@H](C)CC)C(=O)N2CCC[C@H]2C(=O)N(C)[C@H]2C/C=C\CCN(C2=O)[C@@H](CC2CCC(F)(F)CC2)C(=O)N(C)CC(=O)N[C@@H](CCc2ccc(C(F)(F)F)c(OC)c2)C(=O)N2C[C@H](OCC)C[C@H]2C(=O)N(C)C2(CCC2)C(=O)N(C)[C@@H](C2CCCC2)C(=O)N(C)[C@H](C(=O)N(C)C)CC(=O)N1C [PP2356],HRAS/KRAS (ratio of KD value with respect to HRAS to KD value with respect to KRAS),[1]; [3],A (a compound having 10 or more and less than 20 is denoted as A)
same,NRAS/KRAS (ratio of KD value with respect to NRAS to KD value with respect to KRAS),[2]; [4],A (a compound having 10 or more and less than 20 is denoted as A)
CCC[C@H]1C(=O)N[C@@H](C2CCCC2)C(=O)N(C)CC(=O)N(C)[C@H]2C/C=C\CCN(C2=O)[C@@H](Cc2ccc(C)cc2)C(=O)N(C)CC(=O)N[C@@H](CCc2ccc(C(F)(F)F)c(Cl)c2)C(=O)N2C[C@H](OCC)C[C@H]2C(=O)NC2(CC(C)(C)C2)C(=O)N(C)[C@@H](CC(F)(F)F)C(=O)N(C)[C@H](C(=O)N(C)C)CC(=O)N1C [PP2192],HRAS/KRAS (ratio of KD value with respect to HRAS to KD value with respect to KRAS),[1]; [3],A (a compound having 10 or more and less than 20 is denoted as A)
same,NRAS/KRAS (ratio of KD value with respect to NRAS to KD value with respect to KRAS),[2]; [4],A (a compound having 10 or more and less than 20 is denoted as A)
CC[C@H](C)[C@@H]1NC(=O)[C@H](C)N(C)C(=O)C[C@@H](C(=O)N(C)C)N(C)C(=O)[C@H](C2CCCC2)N(C)C(=O)C2(CCC2)NC(=O)[C@@H]2CC(F)(F)CN2C(=O)[C@H](CCc2cc(F)c(C(F)(F)F)c(F)c2)NC(=O)CN(C)C(=O)[C@H](Cc2ccc(C(F)(F)F)cc2)N2CCCC[C@@H](C2=O)N(C)C(=O)CN(C)C1=O [PP0584],HRAS/KRAS (ratio of KD value with respect to GDP-bound HRAS wild-type protein to KD value with respect to KRAS),[1]; KD ratio HRAS/KRAS,C (A compound having a KD ratio of 0.1 or more and less than 3 is denoted as C)
same,NRAS/KRAS (ratio of KD value with respect to GDP-bound NRAS wild-type protein to KD value with respect to KRAS),[2]; KD ratio NRAS/KRAS,C (A compound having a KD ratio of 0.1 or more and less than 3 is denoted as C)
"CCCN1C(=O)[C@@H]2CCN2C(=O)CN(C)C(=O)[C@H]([C@@H](C)CC)NC(=O)[C@H](CC(C)C)N(C)C(=O)C[C@@H](C(=O)N(C)C)NC(=O)[C@H](C2CCCC2)N(C)C(=O)C2(CCC2)NC(=O)[C@@H]2CC(F)(F)CN2C(=O)[C@H](CCc2ccc(C(F)(F)F)c(Cl)c2)NC(=O)CN(C)C(=O)[C@@H]1Cc1ccc(C(F)(F)F)cc1 [PP0388] ([NMeL]I[Sar][Aze][NPrPhe(4-CF3)][Sar][hPhe(3-Cl-4-CF3)][Pro(4,4-F2)][Ac4c][NMeGly(cPent)]D-NMe2; lactam N-11)",HRAS/KRAS (ratio of KD for GDP-bound HRAS wild-type to KD for KRAS),[1]; KD ratio HRAS/KRAS,B (a compound having 3 or more and less than 10 is denoted as B)
same,NRAS/KRAS (ratio of KD for GDP-bound NRAS wild-type to KD for KRAS),[2]; KD ratio NRAS/KRAS,C (A compound having a KD ratio of 0.1 or more and less than 3 is denoted as C)
CCO[C@@H]1C[C@H]2C(=O)NC3(CC(C)(C)C3)C(=O)N(C)[C@@H](C3CCCC3)C(=O)N(C)[C@H](C(=O)N(C)CC)CC(=O)N(C)[C@@H](COC)C(=O)N[C@@H]([C@@H](C)CC)C(=O)N(C)CC(=O)N(C)[C@H]3C/C=C\CCN(C3=O)[C@@H](Cc3ccc(C(F)(F)F)cc3)C(=O)N(C)CC(=O)N[C@@H](CCc3ccc(C(F)(F)F)c(OC)c3)C(=O)N2C1 [PP1679],HRAS/KRAS (ratio of KD value for HRAS to KD value for KRAS),"[1]; KD ratio, GDP-bound HRAS wild-type vs GDP-bound KRAS wild-type",A (a compound having 10 or more and less than 20 is denoted as A)
same,NRAS/KRAS (ratio of KD value for NRAS to KD value for KRAS),"[2]; KD ratio, GDP-bound NRAS wild-type vs GDP-bound KRAS wild-type",A (a compound having 10 or more and less than 20 is denoted as A)
